test system: methicillin-resistant Staphylococcus aureus (ATCC 43300); assay: Standard antibiotic sensitivity test using the Vitek-2 system; assay type: cell-based; conditions: strain ATCC 43300

Compound	antibiotic sensitivity of the MRSA strain
CC1(C)S[C@@H]2[C@H](NC(=O)[C@H](N)c3ccccc3)C(=O)N2[C@H]1C(=O)O [ampicillin]	resistant
CO[C@@]1(NC(=O)Cc2cccs2)C(=O)N2C(C(=O)O)=C(COC(N)=O)CS[C@@H]21 [cefoxitin]	resistant
Cc1onc(-c2ccccc2)c1C(=O)N[C@@H]1C(=O)N2[C@@H]1SC(C)(C)[C@@H]2C(=O)O [oxacillin]	resistant
CC1(C)S[C@@H]2[C@H](NC(=O)Cc3ccccc3)C(=O)N2[C@H]1C(=O)O [penicillin G]	resistant
amoxicillin-alavulanate	resistant
